Measurements reported in PubChem BioAssay (NCI).
Several values for one entry are separate records, joined by “and”; a condition that tells them apart may be missing. Identical values can stand only once.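 Cells were grown in 96-well plates and exposed to each compound for 48 hours at five concentrations; endpoints were interpolated linearly between bracketing concentrations, or set to the highest concentration if not reached. The concentration for 50% growth inhibition is given as GI50. TGI is the concentration that stops growth completely.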

Assays:
Assay in all cases: growth of human tumour cells (NCI), 48 h
[1] = system: SK-OV-3 ovarian
[2] = system: SK-MEL-2 melanoma
[3] = system: TK-10 renal
[4] = system: KM12 colon
[5] = system: SNB-75 CNS
[6] = system: EKVX NSCLC
[7] = system: CCRF-CEM leukemia
[8] = system: HS 578T breast
[9] = system: LOX IMVI melanoma
[10] = system: SF-539 CNS

SMILES	GI50 [1]	TGI [1]	GI50 [2]	TGI [2]	GI50 [3]	TGI [3]	GI50 [4]	TGI [4]	GI50 [5]	TGI [5]	GI50 [6]	TGI [6]	GI50 [7]	TGI [7]	GI50 [8]	TGI [8]	GI50 [9]	TGI [9]	GI50 [10]	TGI [10]
O=[P@@]1(c2ccccc2)O[C@H](COCc2ccccc2)[C@@H](OCc2ccccc2)[C@H](OCc2ccccc2)[C@H]1NCc1ccccc1	4.48 µM	> 100 µM	3.73 µM	> 100 µM	3.69 µM	> 100 µM	3.21 µM	47.3 µM	2.08 µM	47.5 µM	2.71 µM	> 100 µM	3.23 µM	> 100 µM	3.43 µM	> 100 µM	3.25 µM	18.6 µM	4.74 µM	> 100 µM
Cn1c(Nc2ccc(C(F)(F)F)cc2)nc2cc(Oc3ccnc(-c4ncc(C(F)(F)F)[nH]4)c3)ccc21	0.0385 µM	19.1 µM	0.0387 µM	0.728 µM	2.91 µM	16.2 µM	1.3 µM	12.5 µM	0.297 µM	26.2 µM	2.33 µM	19.1 µM	0.251 µM	5.17 µM	0.0555 µM	9.41 µM	0.0599 µM	1.78 µM	0.232 µM	13.7 µM
COc1ccccc1Nc1ncc(-c2ccccc2)o1	> 25 µM	> 25 µM	> 25 µM	> 25 µM	> 25 µM	> 25 µM	9.77 µM	> 25 µM	> 25 µM	> 25 µM	> 25 µM	> 25 µM	> 25 µM	> 25 µM	> 5.12 µM	> 25 µM	> 25 µM	> 25 µM	> 25 µM	> 25 µM
O=C(Nc1cc(C(F)(F)F)ccc1Cl)c1cccc(NC2=C(Cl)C(=O)N(Cc3ccccc3)C2=O)c1	> 100 µM	> 100 µM	30.8 µM	> 100 µM	34.2 µM	> 100 µM	52.9 µM	> 100 µM	> 100 µM	> 100 µM	53 µM	> 100 µM	2.71 µM	> 100 µM	53.7 µM	> 100 µM	5.65 µM	> 100 µM	26.4 µM	53.7 µM
CSc1nc(NC2OC(COC(C)=O)C(OC(C)=O)C(OC(C)=O)C2OC(C)=O)c(N=CC=Nc2c(NC3OC(COC(C)=O)C(OC(C)=O)C(OC(C)=O)C3OC(C)=O)nc(SC)n(C)c2=O)c(=O)n1C (configuration not stated)	> 50 µM	> 50 µM and 80.1 µM	25.2 µM	50 µM and > 96 µM	30.7 µM	50 µM and > 97.1 µM	> 50 µM	> 100 µM	8.97 µM	25.4 µM and 24.3 µM	> 50 µM	> 100 µM	> 50 µM	> 100 µM	13.2 µM	50 µM and 75.7 µM	> 50 µM	> 100 µM	–	50 µM and 69.3 µM
BrCc1cccc(C[P+](c2ccccc2)(c2ccccc2)c2ccccc2)c1	70.1 µM	> 100 µM	27.9 µM	> 100 µM	12.5 µM	> 100 µM	16 µM	> 100 µM	6.78 µM	> 100 µM	18.1 µM	> 100 µM	13.3 µM	> 100 µM	18.4 µM	> 100 µM	14 µM	> 100 µM	6.05 µM	> 100 µM
O=S(=O)(Nc1ccc(Cl)cc1Cl)c1ccc(-c2cnc(C3CC3)o2)cc1	7.1 µM	99.4 µM	3.03 µM	42.2 µM	5.03 µM	79.6 µM	0.485 µM	25.9 µM	0.185 µM	0.75 µM	2.56 µM	88.6 µM	0.509 µM	> 100 µM	0.365 µM	48.5 µM	0.542 µM	34 µM	0.414 µM	7.55 µM
O=C(CNS(=O)(=O)Cc1ccccc1)NNc1ccccc1	–	> 100 µM	–	> 100 µM	–	> 100 µM	–	> 100 µM	–	> 100 µM	–	> 100 µM	–	> 100 µM	–	> 100 µM	–	> 100 µM	–	> 25.6 µM
CN(C)C(=S)Sc1ccc([N+](=O)[O-])cc1[N+](=O)[O-]	12 µM	31.2 µM	4.21 µM	9.86 µM	2.29 µM	5.85 µM	2.81 µM	12.7 µM	7.53 µM	20.5 µM	5.29 µM	19.7 µM	0.406 µM	> 43.6 µM	9.95 µM	56.3 µM	1.53 µM	3.63 µM	3.8 µM	14.6 µM
CCc1c(Cl)c(C)cc(O)c1Cl	–	> 100 µM	–	68.3 µM	–	> 100 µM	–	> 100 µM	–	> 100 µM	–	> 100 µM	–	91.7 µM	–	99.7 µM	–	51.7 µM	–	78.9 µM
Cc1ccc(Nc2oc(-c3ccccc3)nc2[P+](c2ccccc2)(c2ccccc2)c2ccccc2)cc1	1.58 µM	3.69 µM	0.625 µM	1.85 µM	1.37 µM	2.93 µM	0.861 µM	2.46 µM	1.15 µM	3.71 µM	0.616 µM	2.38 µM	0.547 µM	4.77 µM	1.41 µM	3.99 µM	0.833 µM	2.11 µM	1.59 µM	3.02 µM
O=C(NNc1ccccc1)C(=O)NNc1ccccc1	> 100 µM	> 100 µM	2.63 µM	> 100 µM	0.919 µM	> 100 µM	0.535 µM	> 100 µM	11.6 µM	> 100 µM	> 100 µM	> 100 µM	0.637 µM	> 100 µM	> 100 µM	> 100 µM	4.34 µM	> 100 µM	2.63 µM	14.5 µM
CCOC(=O)c1c(-c2ccc(OC)cc2)c(C#N)c2c(C#N)c(N)nn2c1N	3.49 µM	19.1 µM	3.35 µM	26.5 µM	16.4 µM	69.2 µM	4.01 µM	> 100 µM	1.84 µM	7.59 µM	4.8 µM	> 100 µM	2.46 µM	> 100 µM	2.96 µM	27.6 µM	4.81 µM	> 100 µM	2.39 µM	8.6 µM
CN(C)C/C=C/C(=O)Nc1cc2c(Nc3ccc(F)c(Cl)c3)ncnc2cc1O[C@H]1CCOC1	< 0.01 µM and 0.00185 µM	0.322 µM and 0.327 µM	1.38 µM and 1.51 µM	2.93 µM and 4.13 µM	< 0.01 µM and 0.00136 µM	–	1.25 µM and 1.99 µM	11.3 µM and > 10 µM	1.48 µM and 0.983 µM	10.7 µM and 8.33 µM	< 0.01 µM and 0.003 µM	11.3 µM and > 10 µM	1.79 µM and 1.53 µM	9.17 µM and > 7.56 µM	2.4 µM and 1.62 µM	13.3 µM and > 8.16 µM	1.02 µM and 1.38 µM	3.62 µM and > 5.51 µM	1.5 µM and 2.59 µM	4.68 µM and 9.71 µM
CC12CCC3c4ccc(O)cc4CCC3C1C/C(=N\O)C2O (configuration not stated)	–	> 100 µM	–	> 100 µM	–	> 100 µM	–	> 100 µM	–	> 100 µM	–	> 100 µM	–	> 100 µM	–	> 100 µM	–	> 100 µM	–	> 100 µM
C=COC(=O)N[C@H]1CCc2cc(OC)c(OC)c(OC)c2-c2ccc(SC)c(=O)cc21	–	3.5 µM	–	1.73 µM	–	86.5 µM	–	0.0388 µM	–	14.4 µM	–	> 100 µM	–	> 80.1 µM	–	> 4.64 µM	–	> 95.8 µM	–	< 0.0464 µM
Cc1ccc2c(C3C(C#N)=C(N)Oc4cc5ccccc5cc43)cc(=O)oc2c1 (configuration not stated)	2.04 µM	> 100 µM	11.7 µM	> 100 µM	17.6 µM	> 100 µM	0.724 µM	> 100 µM	6.89 µM	> 100 µM	4.44 µM	> 100 µM	0.976 µM	> 100 µM	3.29 µM	> 100 µM	3.17 µM	> 100 µM	0.873 µM	7.6 µM
C=CCc1ccc(O)c(-c2ccc(O)c(CC=C)c2)c1	22.1 µM	50.1 µM	14.5 µM	33 µM	16 µM	33.9 µM	13.6 µM	34 µM	22.1 µM	> 46.6 µM	7.11 µM	23.3 µM	13.1 µM	> 100 µM	14.2 µM	39.7 µM	15.7 µM	34.3 µM	16.6 µM	31.8 µM
CN(C)c1ccc(N=Nc2ccccn2)c(O)c1	0.42 µM	> 28.3 µM	2.79 µM	> 100 µM	0.177 µM	43.9 µM	0.465 µM	> 76.9 µM	0.453 µM	96.9 µM	0.2 µM	14.4 µM	0.0979 µM	–	3.53 µM	> 85.5 µM	0.258 µM	> 100 µM	0.355 µM	8.44 µM
CCc1ccc(/C=C/c2ccc(O)c3ncccc23)[n+](C)c1	26.9 µM	> 100 µM	> 71.7 µM	> 100 µM	> 100 µM	> 100 µM	0.512 µM	> 100 µM	> 100 µM	> 100 µM	0.777 µM	> 100 µM	4.95 µM	> 100 µM	51.2 µM	> 100 µM	35.8 µM	> 100 µM	20.4 µM	> 100 µM
O=C1CCC/C=C\C[C@H]2C=CC(=O)/C2=C/C[C@H](C/C=C\CC(F)(F)F)O1	0.757 µM	3.02 µM	0.365 µM	1.19 µM	0.618 µM	2.17 µM	0.299 µM	0.635 µM	0.806 µM	3.22 µM	0.893 µM	3.42 µM	0.465 µM	1.71 µM	1.17 µM	9.68 µM	0.288 µM	0.591 µM	0.676 µM	3.08 µM
C[C@H]1CN[C@@H]2[C@@H](C)[C@H]3[C@@H](C[C@H]4[C@@H]5CC[C@H]6C[C@@H](N)CC[C@]6(C)[C@H]5CC[C@]34C)O[C@@]2(O)C1	–	19.7 µM	–	12.2 µM	–	11.7 µM	–	11.1 µM	–	9.52 µM	–	14.9 µM	–	4.27 µM	–	6.55 µM	–	4.08 µM	–	3.27 µM
